Results taken from the NIST ThermoML archive (doi:10.1016/j.tca.2012.10.024).
± gives the expanded uncertainty stated by the source.

Key:
[1] = 101.33 kPa, Liquid, Pycnometric method
[2] = refractive index (Na D-line) (dimensionless); conditions: 101.33 kPa, Liquid, Standard Abbe refractometry
[3] = relative permittivity at zero frequency (dimensionless); conditions: 101.33 kPa, Liquid, Parallel plate capacitor

mass density ([1]; 293.15 K) | mass density ([1]; 298.15 K) | mass density ([1]; 303.15 K) | refractive index ([2]; 293.15 K) | refractive index ([2]; 298.15 K) | refractive index ([2]; 303.15 K) | relative permittivity at zero frequency ([3]; 293.15 K) | relative permittivity at zero frequency ([3]; 298.15 K) | relative permittivity at zero frequency ([3]; 303.15 K) | Compound
1011.06 ± 1.4 kg/m3 | 1007.07 ± 1.4 kg/m3 | 1002.49 ± 1.4 kg/m3 | 1.4326 ± 0.0009 | 1.4306 ± 0.0009 | 1.4286 ± 0.0009 | 7.939 ± 0.48 | 7.816 ± 0.47 | 7.692 ± 0.46 | COCCOCCOCCOCCOC [2,5,8,11,14-pentaoxapentadecane]
– | – | – | 1.3976 ± 0.0008 | 1.3952 ± 0.0008 | 1.3929 ± 0.0008 | 1.968 ± 0.12 | 1.961 ± 0.12 | 1.954 ± 0.12 | CCCCCCCC [octane]
– | – | – | 1.41 ± 0.0008 | 1.4082 ± 0.0008 | 1.4061 ± 0.0008 | 15.739 ± 0.94 | 15.158 ± 0.91 | 14.579 ± 0.88 | CCCCCO [pentan-1-ol]
